# Reference: PubChem BioAssay (NCI)
#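 96-well plates; 48 h exposure; 5 concentrations. Endpoints by linear interpolation between flanking doses. Not reached: highest tested concentration assigned. GI50 = concentration required for 50% inhibition of growth. TGI is the concentration that stops growth completely.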
# What was measured:
# Assay in all cases: DTP human tumour cell line panel, 48 h
# [1] = test system: M14 melanoma
# [2] = test system: A549 NSCLC
# [3] = test system: MDA-MB-435
# [4] = test system: DU-145 prostate
# [5] = test system: U251 CNS
# [6] = test system: OVCAR-3 ovarian
# [7] = test system: A498 renal
# [8] = test system: SK-MEL-5 melanoma
# [9] = test system: SNB-19 CNS
# [10] = test system: KM12 colon
# [11] = test system: SF-268 CNS
# [12] = test system: NCI-H226 lung
# [13] = test system: BT-549 breast
# [14] = test system: PC-3 prostate
# [15] = test system: SF-539 CNS
# [16] = test system: CAKI-1 renal
# [17] = test system: HCC-2998 colon
# [18] = test system: MALME-3M melanoma
# [19] = test system: UACC-257 melanoma
# [20] = test system: ACHN renal
# [21] = test system: HOP-92 NSCLC
# [22] = test system: UO-31 renal
# [23] = test system: SK-OV-3 ovarian
# [24] = test system: HOP-62 NSCLC
# [25] = test system: RPMI-8226 leukemia
# [26] = test system: SN12C renal
# [27] = test system: OVCAR-8 ovarian
# [28] = test system: MDA-MB-231 breast
# [29] = test system: COLO 205 colon
# [30] = test system: SNB-75 CNS
# [31] = test system: SW-620 colon
# [32] = test system: T-47D breast
# [33] = test system: HT29 colon
# [34] = test system: RXF 393 renal
# [35] = test system: CCRF-CEM leukemia
# [36] = test system: SF-295 CNS
# [37] = test system: SK-MEL-2 melanoma
# [38] = test system: EKVX NSCLC
# [39] = test system: 786-0 renal
# [40] = test system: OVCAR-4 ovarian
# [41] = test system: SK-MEL-28 melanoma
# [42] = test system: NCI-H460 lung
# [43] = test system: TK-10 renal
# [44] = test system: NCI-H522 lung
smiles,measurement,setting,value
C=C(CNCCc1ccc(O)cc1)[C@@H]1CC[C@]2(CO)CC[C@]3(C)[C@H](CC[C@@H]4[C@@]5(C)CCC(N)C(C)(C)[C@@H]5CC[C@]43C)[C@@H]12 (stereo partly drawn),GI50,[1],1.75 µM
same,TGI,[1],3.33 µM
same,GI50,[2],1.66 µM
same,TGI,[2],3.13 µM
same,GI50,[3],1.52 µM
same,TGI,[3],2.85 µM
same,GI50,[4],1.63 µM
same,TGI,[4],2.98 µM
same,GI50,[5],0.917 µM
same,TGI,[5],2.12 µM
same,GI50,[6],1.65 µM
same,TGI,[6],3.1 µM
same,GI50,[7],1.44 µM
same,TGI,[7],2.79 µM
same,GI50,[8],1.69 µM
same,TGI,[8],3.09 µM
same,GI50,[9],1.22 µM
same,TGI,[9],2.53 µM
same,GI50,[10],1.48 µM
same,TGI,[10],2.96 µM
same,GI50,[11],1.52 µM
same,TGI,[11],3.03 µM
same,GI50,[12],1.83 µM
same,TGI,[12],3.78 µM
same,GI50,[13],1.7 µM
same,TGI,[13],3.53 µM
same,GI50,[14],1.44 µM
same,TGI,[14],2.98 µM
same,GI50,[15],1.56 µM
same,TGI,[15],2.94 µM
same,GI50,[16],1.59 µM
same,TGI,[16],3.1 µM
same,GI50,[17],1.66 µM
same,TGI,[17],3.3 µM
same,GI50,[18],1.58 µM
same,TGI,[18],3.09 µM
same,GI50,[19],0.195 µM
same,TGI,[19],0.517 µM
same,GI50,[20],1.78 µM
same,TGI,[20],3.19 µM
same,GI50,[21],1.12 µM
same,TGI,[21],2.49 µM
same,GI50,[22],1.42 µM
same,TGI,[22],2.76 µM
same,GI50,[23],1.84 µM
same,TGI,[23],3.34 µM
same,GI50,[24],1.73 µM
same,TGI,[24],3.36 µM
same,GI50,[25],1.44 µM
same,TGI,[25],4.04 µM
same,GI50,[26],1.56 µM
same,TGI,[26],3.02 µM
same,GI50,[27],0.0235 µM
same,TGI,[27],1.39 µM
same,GI50,[28],1.11 µM
same,TGI,[28],2.38 µM
same,GI50,[29],1.64 µM
same,TGI,[29],3.3 µM
same,GI50,[30],1.24 µM
same,TGI,[30],2.49 µM
same,GI50,[31],0.915 µM
same,TGI,[31],2.27 µM
same,GI50,[32],1.64 µM
same,TGI,[32],3.58 µM
same,GI50,[33],0.46 µM
same,TGI,[33],1.81 µM
same,GI50,[34],1.08 µM
same,TGI,[34],2.36 µM
same,GI50,[35],0.28 µM
same,TGI,[35],1.23 µM
same,GI50,[36],1.73 µM
same,TGI,[36],3.3 µM
same,GI50,[37],1.79 µM
same,TGI,[37],3.4 µM
same,GI50,[38],1.66 µM
same,TGI,[38],3.36 µM
same,GI50,[39],1.52 µM
same,TGI,[39],3 µM
same,GI50,[40],1.44 µM
same,TGI,[40],2.95 µM
same,GI50,[41],1.76 µM
same,TGI,[41],3.28 µM
same,GI50,[42],1.51 µM
same,TGI,[42],3.07 µM
same,GI50,[43],1.73 µM
same,TGI,[43],3.22 µM
same,GI50,[44],1.76 µM
same,TGI,[44],3.42 µM
